Laboratory results as given in patent US7297481B2, “Detection of DNA damage” (ESA Biosciences, Inc., priority 2000, dated 2007).
Each block holds one compound with its values, some of them ahead of it.

Tests used:
[1] = Urine 8OH2′dG levels in individuals exposed to chemicals; type: in vivo, human; details: individuals exposed to the substance
[2] = Dialysis studies of 8OH2′dG in extracellular matrix, probes in brain and muscle; type: in vivo; details: extracellular matrix vs free levels inside cellular material, brain and muscle of rat and mouse
Description: (§1) 1. Dialysis studies of 8OH2′dG in extracellular matrix with probes placed in brain and muscle of rat and mouse to measure the rate of production and excretion compared with the free levels inside the cellular material confirm that excretion from the cells is rapid. Similarly, comparison of CSF, Plasma and urinary levels of ca 1:10:2000 in ca 100 ALS and control subjects confirm that the rate of clearance from the body is high.

[3] = Comparison of CSF, plasma, urine, saliva and sweat levels of 8OH2′dG; type: in vivo, human
Description: as §1

[4] = Effect of simple antioxidants on levels of 8OH2′dG; type: in vivo
C. Elegans = test: 8OH2′dG production (DNA damage rate) in C. Elegans culture; type: in vivo
Description: 2. Relevant to the use of DNA damage rate measurements to cancer diagnosis I have observed that in C. Elegans culture there is a burst of 8OH2′dG production during the stage of rapid replication of the gonadal cells. In similar experiments I observed that a toxin (3 nitro propionic acid, 3NP) increased the rate of DNA damage during replication.
4. […] In rapid cell replication in C. Elegans, in 3NP insulted C.

Compound: Nc1ccccc1 [aniline]
Urine levels of 8OH2′dG [1]: significantly increased

excretion from the cells [2]: rapid
rate of clearance from the body ([3]; CSF, plasma and urinary levels ca 1:10:2000 in ca 100 ALS and control subjects): high
Compound: Nc1nc2c(nc(O)n2[C@H]2C[C@H](O)[C@@H](CO)O2)c(=O)[nH]1 [8OH2′dG, 8 hydroxy 2′ deoxyguanosine]
mode of removal ([3]; saliva or sweat vs. urine levels, plasma of kidney dialysis patients): urinary excretion is the primary mode of removal

Compound: O=C1O[C@H]([C@@H](O)CO)C(O)=C1O [Ascorbate]
effect on the levels of 8OH2′dG [4]: no effect

Compound: Cc1ccccc1N [o-toluidine]
Urine levels of 8OH2′dG [1]: significantly increased

Compound: O=C(O)CC[N+](=O)[O-] [3NP, 3 nitro propionic acid]
rate of damage after the toxin was removed (C. Elegans; after exposure): still maintained at a higher level
rate of DNA damage during replication (C. Elegans; toxin exposure): increased

Compound: [As] [arsenic]
Urine levels of 8OH2′dG [1]: significantly increased

Compound: Tocopherol
effect on the levels of 8OH2′dG [4]: no effect
